Results published in ChEMBL document CHEMBL3885881, “DrugMatrix”.

Species: Rattus norvegicus
Test: DrugMatrix - Regimen: Daily Repeat
Format: toxicity, organism-based, Sprague-Dawley
Set-up: regimen Daily Repeat, gender Male, age 6-8 weeks
Conditions: in vivo, po, route oral GAVAGE, vehicle .5 % CMC; for ABSOLUTE BASOPHIL / ABSOLUTE EOSINOPHIL / ABSOLUTE LYMPHOCYTE / ABSOLUTE MONOCYTE / ABSOLUTE SEGMENTED NEUTROPHIL / BASOPHIL / EOSINOPHIL / ERYTHROCYTE COUNT / HEMATOCRIT / HEMOGLOBIN / LEUKOCYTE COUNT / LYMPHOCYTE / MEAN CORPUSCULAR HEMOGLOBIN / MEAN CORPUSCULAR HEMOGLOBIN CONCENTRATION / MEAN CORPUSCULAR VOLUME / MONOCYTE / NEUTROPHIL / NUCLEATED RED BLOOD CELLS / PLATELET COUNT: tissue Blood; for ALANINE AMINOTRANSFERASE / ALBUMIN / ALKALINE PHOSPHATASE / ASPARTATE AMINOTRANSFERASE / BLOOD UREA NITROGEN / CARBON DIOXIDE / CHLORIDE / CHOLESTEROL / CREATINE PHOSPHOKINASE / CREATININE / GLUCOSE / LACTATE DEHYDROGENASE / LIPASE / PHOSPHORUS / POTASSIUM / SODIUM / TOTAL BILIRUBIN / TOTAL PROTEIN / URIC ACID: tissue Plasma
[1] = 25 mg/kg, 72 h, dose level Low, time 3 day
[2] = 25 mg/kg, 120 h, dose level Low, time 5 day
[3] = 300 mg/kg, 72 h, dose level High, time 3 day
[4] = 300 mg/kg, 120 h, dose level High, time 5 day

## CC(=O)S[C@@H]1CC2=CC(=O)CC[C@]2(C)[C@H]2CC[C@@]3(C)[C@@H](CC[C@@]34CCC(=O)O4)[C@H]12 [SPIRONOLACTONE]
[1]
  ABSOLUTE BASOPHIL: 0 CELLS/uL
  ABSOLUTE EOSINOPHIL: 0 CELLS/uL
  ABSOLUTE LYMPHOCYTE: 11038 CELLS/uL
  ABSOLUTE MONOCYTE: 168 CELLS/uL
  ABSOLUTE SEGMENTED NEUTROPHIL: 694 CELLS/uL
  BASOPHIL: 0%
  EOSINOPHIL: 0%
  ERYTHROCYTE COUNT: 5.44 x10E6/uL
  HEMATOCRIT: 34.63%
  HEMOGLOBIN: 13.87 G/DL
  LEUKOCYTE COUNT: 11.9 x10E3/uL
  LYMPHOCYTE: 92.67%
  MEAN CORPUSCULAR HEMOGLOBIN: 25.53 pg
  MEAN CORPUSCULAR HEMOGLOBIN CONCENTRATION: 40.03 G/DL
  MEAN CORPUSCULAR VOLUME: 63.7 fL
  MONOCYTE: 1.33%
  NEUTROPHIL: 6%
  NUCLEATED RED BLOOD CELLS: 0.67 /100WBC
  PLATELET COUNT: 1277 x10E3/uL
  ALANINE AMINOTRANSFERASE: 45.67 u/L
  ALBUMIN: 4.3 G/DL
  ALKALINE PHOSPHATASE: 295 u/L
  ASPARTATE AMINOTRANSFERASE: 77.33 u/L
  BLOOD UREA NITROGEN: 15.33 mg/dL
  CARBON DIOXIDE: 28 mmol/L
  CHLORIDE: 101.33 MEQ/L
  CHOLESTEROL: 76.33 mg/dL
  CREATINE PHOSPHOKINASE: 188.33 u/L
  CREATININE: 0.21 mg/dL
  GLUCOSE: 169.33 mg/dL
  LACTATE DEHYDROGENASE: 202.67 u/L
  LIPASE: 9.67 u/L
  PHOSPHORUS: 12.5 mg/dL
  POTASSIUM: 6.74 MEQ/L
  SODIUM: 146.03 MEQ/L
  TOTAL BILIRUBIN: 0.2 mg/dL
  TOTAL PROTEIN: 5.83 G/DL
  URIC ACID: 1.8 mg/dL
[2]
  ABSOLUTE BASOPHIL: 0 CELLS/uL
  ABSOLUTE EOSINOPHIL: 0 CELLS/uL
  ABSOLUTE LYMPHOCYTE: 13033 CELLS/uL
  ABSOLUTE MONOCYTE: 85.33 CELLS/uL
  ABSOLUTE SEGMENTED NEUTROPHIL: 1115 CELLS/uL
  BASOPHIL: 0%
  EOSINOPHIL: 0%
  ERYTHROCYTE COUNT: 5.6 x10E6/uL
  HEMATOCRIT: 34.4%
  HEMOGLOBIN: 13.67 G/DL
  LEUKOCYTE COUNT: 14.23 x10E3/uL
  LYMPHOCYTE: 91.33%
  MEAN CORPUSCULAR HEMOGLOBIN: 24.47 pg
  MEAN CORPUSCULAR HEMOGLOBIN CONCENTRATION: 39.73 G/DL
  MEAN CORPUSCULAR VOLUME: 61.5 fL
  MONOCYTE: 0.67%
  NEUTROPHIL: 8%
  NUCLEATED RED BLOOD CELLS: 0 /100WBC
  PLATELET COUNT: 1372 x10E3/uL
  ALANINE AMINOTRANSFERASE: 48.67 u/L
  ALBUMIN: 4.3 G/DL
  ALKALINE PHOSPHATASE: 354.67 u/L
  ASPARTATE AMINOTRANSFERASE: 81 u/L
  BLOOD UREA NITROGEN: 19 mg/dL
  CARBON DIOXIDE: 25.67 mmol/L
  CHLORIDE: 103.33 MEQ/L
  CHOLESTEROL: 60.33 mg/dL
  CREATINE PHOSPHOKINASE: 259.33 u/L
  CREATININE: 0.2 mg/dL
  GLUCOSE: 164.33 mg/dL
  LACTATE DEHYDROGENASE: 139 u/L
  LIPASE: 9.67 u/L
  PHOSPHORUS: 12.23 mg/dL
  POTASSIUM: 6.24 MEQ/L
  SODIUM: 148.03 MEQ/L
  TOTAL BILIRUBIN: 0.23 mg/dL
  TOTAL PROTEIN: 6.27 G/DL
  URIC ACID: 1.93 mg/dL
[3]
  ABSOLUTE BASOPHIL: 0 CELLS/uL
  ABSOLUTE EOSINOPHIL: 0 CELLS/uL
  ABSOLUTE LYMPHOCYTE: 10747 CELLS/uL
  ABSOLUTE MONOCYTE: 38 CELLS/uL
  ABSOLUTE SEGMENTED NEUTROPHIL: 481.67 CELLS/uL
  BASOPHIL: 0%
  EOSINOPHIL: 0%
  ERYTHROCYTE COUNT: 5.83 x10E6/uL
  HEMATOCRIT: 37.33%
  HEMOGLOBIN: 14.97 G/DL
  LEUKOCYTE COUNT: 11.27 x10E3/uL
  LYMPHOCYTE: 95.33%
  MEAN CORPUSCULAR HEMOGLOBIN: 25.67 pg
  MEAN CORPUSCULAR HEMOGLOBIN CONCENTRATION: 40.07 G/DL
  MEAN CORPUSCULAR VOLUME: 64.03 fL
  MONOCYTE: 0.33%
  NEUTROPHIL: 4.33%
  NUCLEATED RED BLOOD CELLS: 0 /100WBC
  PLATELET COUNT: 1193 x10E3/uL
  ALANINE AMINOTRANSFERASE: 95 u/L
  ALBUMIN: 4.27 G/DL
  ALKALINE PHOSPHATASE: 425.67 u/L
  ASPARTATE AMINOTRANSFERASE: 757 u/L
  BLOOD UREA NITROGEN: 16.67 mg/dL
  CARBON DIOXIDE: 22.67 mmol/L
  CHLORIDE: 101.33 MEQ/L
  CHOLESTEROL: 65.67 mg/dL
  CREATINE PHOSPHOKINASE: 5158.67 u/L
  CREATININE: 0.2 mg/dL
  GLUCOSE: 152.67 mg/dL
  LACTATE DEHYDROGENASE: 2756 u/L
  LIPASE: 11 u/L
  PHOSPHORUS: 12.67 mg/dL
  POTASSIUM: 9.65 MEQ/L
  SODIUM: 142.53 MEQ/L
  TOTAL BILIRUBIN: 0.3 mg/dL
  TOTAL PROTEIN: 6.07 G/DL
  URIC ACID: 3.73 mg/dL
[4]
  ABSOLUTE BASOPHIL: 0 CELLS/uL
  ABSOLUTE EOSINOPHIL: 55.67 CELLS/uL
  ABSOLUTE LYMPHOCYTE: 15788 CELLS/uL
  ABSOLUTE MONOCYTE: 55.67 CELLS/uL
  ABSOLUTE SEGMENTED NEUTROPHIL: 1134 CELLS/uL
  BASOPHIL: 0%
  EOSINOPHIL: 0.33%
  ERYTHROCYTE COUNT: 5.9 x10E6/uL
  HEMATOCRIT: 35.17%
  HEMOGLOBIN: 14.23 G/DL
  LEUKOCYTE COUNT: 17.03 x10E3/uL
  LYMPHOCYTE: 92.67%
  MEAN CORPUSCULAR HEMOGLOBIN: 24.17 pg
  MEAN CORPUSCULAR HEMOGLOBIN CONCENTRATION: 40.47 G/DL
  MEAN CORPUSCULAR VOLUME: 59.6 fL
  MONOCYTE: 0.33%
  NEUTROPHIL: 6.67%
  NUCLEATED RED BLOOD CELLS: 0 /100WBC
  PLATELET COUNT: 1586.67 x10E3/uL
  ALANINE AMINOTRANSFERASE: 70.33 u/L
  ALBUMIN: 4.23 G/DL
  ALKALINE PHOSPHATASE: 327.33 u/L
  ASPARTATE AMINOTRANSFERASE: 72.33 u/L
  BLOOD UREA NITROGEN: 17.33 mg/dL
  CARBON DIOXIDE: 27.33 mmol/L
  CHLORIDE: 101.33 MEQ/L
  CHOLESTEROL: 60.67 mg/dL
  CREATINE PHOSPHOKINASE: 189.67 u/L
  CREATININE: 0.21 mg/dL
  GLUCOSE: 158.33 mg/dL
  LACTATE DEHYDROGENASE: 134.33 u/L
  LIPASE: 10.33 u/L
  PHOSPHORUS: 11.07 mg/dL
  POTASSIUM: 6.24 MEQ/L
  SODIUM: 145.57 MEQ/L
  TOTAL BILIRUBIN: 0.2 mg/dL
  TOTAL PROTEIN: 6.17 G/DL
  URIC ACID: 2 mg/dL
